In patent US20040102525A1, “Compositions and methods of treating neurological disease and providing neuroprotection” (priority 2002, published 2004):

What was measured:
[1] = rat, in vivo; cited from earlier work
[2] = injected directly into the VNC prior to UVD; cited from earlier work
[3] = tested on: osteoblasts; conditions: cited from earlier work
[4] = tested on: NMDA receptors; conditions: perfused, ventilated rat lungs; cited from earlier work
[5] = tested on: neurons; conditions: cited from earlier work
[6] = cited from earlier work
[7] = following nerve injury; cited from earlier work
[8] = multiple sclerosis patients; cited from earlier work
[9] = acute, sub-anesthetic doses, normal subjects; cited from earlier work
[10] = healthy subjects; cited from earlier work
[11] = tested on: cortical cell cultures; conditions: cited from earlier work
[12] = pre- or posttreatment, 20 mg/kg IP (von Euler, 1997); cited from earlier work
[13] = tested on: glutamate secreting tumors; conditions: 25 mg/kg IP; cited from earlier work
[14] = tested on: tumor cells including lung, rhabdomyosarcoma, medulloblastoma, and thyroid adenocarcinoma; conditions: cited from earlier work
[15] = in vivo; cited from earlier work
[16] = tested on: L- and N type voltage-activated calcium channels, Na+ channels; conditions: cited from earlier work
[17] = lesions of the entorhinal cortex; cited from earlier work
[18] = rat, brain microdialysis with in vivo recovery; cited from earlier work
[19] = tested on: BDNF mRNA; conditions: rat limbic system; cited from earlier work
[20] = animals studies; cited from earlier work
[21] = tested on: hippocampal slices; conditions: cited from earlier work
[22] = target: NR1A/2B (Homo sapiens, UniProt Q05586+Q13224); conditions: cited from earlier work
[23] = moderate and severe Alzheimer's disease; cited from earlier work
[24] = target: NR2A of the NMDA receptor (Homo sapiens, UniProt Q05586+Q12879); conditions: cited from earlier work
[25] = tested on: GABA or AMPA receptors; conditions: cited from earlier work
[26] = up to 2 hours after induction of hypoxia/ischemia, immature and adult rats; cited from earlier work
[27] = tested on: NMDA receptor; conditions: cited from earlier work
[28] = in vivo; cited from earlier work; remark: listed apart in the source
[29] = cited from earlier work; remark: listed apart in the source
[30] = tested on: D2, AMPA, kainate, alpha 1, alpha 2, and 5-HT re-uptake; conditions: alpha 1, alpha 2, 5-HT re-uptake; cited from earlier work
[31] = animal studies; cited from earlier work
[32] = rats with experimental acute liver failure; cited from earlier work
[33] = parallel treatment with memantine and 3-NP; cited from earlier work
[34] = tested on: NR2C and NR2D subunits; conditions: cited from earlier work
[35] = tested on: inner hair cell afferents; conditions: animal models; cited from earlier work
[36] = EAE (Wallstrom, 1996); cited from earlier work
[37] = tested on: neuronal ganglion cell; conditions: administered 4 hours after NMDA neurotoxicity; cited from earlier work
[38] = cited from earlier work; remark: listed apart in the source
[39] = one patient; metabolic deficits by PET not totally reversed; cited from earlier work
[40] = Tinnitus patient treated with chronic oral memantine; type: in vivo, human; conditions: first patient in the USA, category I tinnitus, chronic oral 10 mg BID
From the text: The efficacy of current therapy for tinnitus is controversial but includes devices that mask tinnitus and TRT (tinnitus retraining therapy) which is a technique utilizing white noise for a period of time to assist the patient to habituate to their tinnitus. […] We postulate that the administration of memantine would attenuate the neurotoxicity mechanisms of cochlear disorders and tinnitus, and also attenuate any abnormal neuronal plasticity in the temporal-parietal association cortex resulting in clinical efficacy for the treatment of tinnitus.

[41] = in vivo; cited from earlier work; remark: listed apart in the source
[42] = rat, in vivo; cited from earlier work; remark: listed apart in the source
[43] = cited from earlier work; remark: listed apart in the source

Sequence of NR2A of the NMDA receptor (Q12879 23-1464, other chains not shown): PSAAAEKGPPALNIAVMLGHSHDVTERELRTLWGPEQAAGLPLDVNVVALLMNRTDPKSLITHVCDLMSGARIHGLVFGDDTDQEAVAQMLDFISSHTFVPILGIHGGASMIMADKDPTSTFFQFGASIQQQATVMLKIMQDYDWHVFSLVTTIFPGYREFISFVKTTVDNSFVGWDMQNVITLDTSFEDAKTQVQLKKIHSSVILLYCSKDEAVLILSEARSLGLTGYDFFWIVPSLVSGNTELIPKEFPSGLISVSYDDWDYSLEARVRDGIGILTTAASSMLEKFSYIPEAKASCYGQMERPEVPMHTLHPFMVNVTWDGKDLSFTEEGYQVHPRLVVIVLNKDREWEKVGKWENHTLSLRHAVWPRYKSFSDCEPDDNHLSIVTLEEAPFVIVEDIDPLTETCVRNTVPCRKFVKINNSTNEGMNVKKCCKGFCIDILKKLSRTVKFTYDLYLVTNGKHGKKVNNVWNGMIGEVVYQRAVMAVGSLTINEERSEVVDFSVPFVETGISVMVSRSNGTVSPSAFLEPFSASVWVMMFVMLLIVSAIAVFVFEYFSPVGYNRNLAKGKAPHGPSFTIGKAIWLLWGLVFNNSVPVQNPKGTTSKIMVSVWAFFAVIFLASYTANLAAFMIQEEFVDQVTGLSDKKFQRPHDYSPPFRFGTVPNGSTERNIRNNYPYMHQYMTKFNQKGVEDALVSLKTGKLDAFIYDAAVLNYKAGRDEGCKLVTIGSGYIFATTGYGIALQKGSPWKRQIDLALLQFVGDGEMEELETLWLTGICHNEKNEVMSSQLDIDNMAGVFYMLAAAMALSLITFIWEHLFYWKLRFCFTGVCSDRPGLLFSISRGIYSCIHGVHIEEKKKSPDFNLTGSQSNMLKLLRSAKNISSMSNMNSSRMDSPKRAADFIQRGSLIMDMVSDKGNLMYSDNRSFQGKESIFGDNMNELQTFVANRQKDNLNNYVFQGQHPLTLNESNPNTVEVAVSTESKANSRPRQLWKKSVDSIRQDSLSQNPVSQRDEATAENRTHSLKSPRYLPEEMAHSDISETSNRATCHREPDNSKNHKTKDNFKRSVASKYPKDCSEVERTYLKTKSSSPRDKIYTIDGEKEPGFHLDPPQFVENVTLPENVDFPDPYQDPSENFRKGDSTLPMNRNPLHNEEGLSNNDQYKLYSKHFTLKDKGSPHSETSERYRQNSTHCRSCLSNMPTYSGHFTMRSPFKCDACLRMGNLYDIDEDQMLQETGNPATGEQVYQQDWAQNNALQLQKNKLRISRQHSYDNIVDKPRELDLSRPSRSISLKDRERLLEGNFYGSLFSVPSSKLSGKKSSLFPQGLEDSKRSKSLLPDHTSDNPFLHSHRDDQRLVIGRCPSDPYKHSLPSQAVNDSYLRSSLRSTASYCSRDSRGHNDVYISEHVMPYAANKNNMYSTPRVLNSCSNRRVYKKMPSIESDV
Sequence of NR1A/2B (Q13224 27-1484, other chains not shown): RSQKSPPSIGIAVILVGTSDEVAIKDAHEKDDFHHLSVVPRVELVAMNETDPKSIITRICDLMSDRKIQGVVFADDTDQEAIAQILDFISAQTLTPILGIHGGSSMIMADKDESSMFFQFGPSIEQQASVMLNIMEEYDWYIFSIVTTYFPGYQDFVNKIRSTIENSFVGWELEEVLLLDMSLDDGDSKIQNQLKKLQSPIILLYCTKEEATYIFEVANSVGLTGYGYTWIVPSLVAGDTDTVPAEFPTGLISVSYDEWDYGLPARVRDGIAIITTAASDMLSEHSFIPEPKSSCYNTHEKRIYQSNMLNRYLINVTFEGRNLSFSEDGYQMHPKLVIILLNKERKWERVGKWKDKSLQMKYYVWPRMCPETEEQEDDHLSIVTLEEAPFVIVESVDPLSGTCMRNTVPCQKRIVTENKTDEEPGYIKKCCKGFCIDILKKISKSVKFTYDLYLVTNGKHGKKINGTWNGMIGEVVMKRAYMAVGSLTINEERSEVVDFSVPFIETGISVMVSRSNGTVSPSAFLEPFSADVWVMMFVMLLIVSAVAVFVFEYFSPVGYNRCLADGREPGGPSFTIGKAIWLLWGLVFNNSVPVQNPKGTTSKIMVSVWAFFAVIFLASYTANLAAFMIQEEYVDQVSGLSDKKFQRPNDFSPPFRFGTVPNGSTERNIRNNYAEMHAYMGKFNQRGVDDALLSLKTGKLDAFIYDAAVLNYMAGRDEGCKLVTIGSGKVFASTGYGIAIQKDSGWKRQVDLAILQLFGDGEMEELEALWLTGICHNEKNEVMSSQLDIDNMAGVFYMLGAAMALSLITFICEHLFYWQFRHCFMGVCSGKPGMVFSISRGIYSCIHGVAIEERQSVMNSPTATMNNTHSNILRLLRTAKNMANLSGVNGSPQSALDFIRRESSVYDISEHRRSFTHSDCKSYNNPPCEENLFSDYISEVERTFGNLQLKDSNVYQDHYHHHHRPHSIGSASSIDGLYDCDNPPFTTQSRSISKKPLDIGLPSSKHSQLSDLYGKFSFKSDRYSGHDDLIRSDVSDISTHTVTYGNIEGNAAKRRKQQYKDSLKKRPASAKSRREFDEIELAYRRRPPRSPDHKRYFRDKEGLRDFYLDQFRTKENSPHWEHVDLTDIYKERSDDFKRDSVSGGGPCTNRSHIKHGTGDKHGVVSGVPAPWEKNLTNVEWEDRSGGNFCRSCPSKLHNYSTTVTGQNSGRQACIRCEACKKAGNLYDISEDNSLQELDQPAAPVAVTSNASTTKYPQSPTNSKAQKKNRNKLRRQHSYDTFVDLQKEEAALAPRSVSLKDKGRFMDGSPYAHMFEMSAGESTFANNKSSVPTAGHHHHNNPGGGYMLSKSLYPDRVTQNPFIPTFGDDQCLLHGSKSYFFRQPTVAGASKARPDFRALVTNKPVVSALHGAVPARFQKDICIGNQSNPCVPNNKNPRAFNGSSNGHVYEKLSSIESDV

C[C@]12N[C@H](Cc3ccccc31)c1ccccc12 [MK-801]
cortical spreading after infarction [1]: able to inhibit cortical spreading
hyperexcitability after infarction [1]: unable to reverse the hyperexcitability
severity of the vestibular syndrome (SON, YHT) [2]: reduced the severity of the vestibular syndrome
inward currents in response to NMDA agonist stimulation [3]: significant decrease in inward currents
pulmonary injury by NMDA receptor activation [4]: prevented
neuronal loss by neurotoxic concentrations of glutamate [5]: attenuated the neuronal loss
increased airway perfusion pressure produced by NMDA ([6]; NMDA): abolished
acute elevation in airway perfusion pressure by capsaicin ([6]; capsaicin): attenuated in both magnitude and duration
motorneurone death [7]: reduced motorneurone death

NCC1(CC(=O)O)CCCCC1 [gabapentin]
treatment of APN [8]: efficacy

CNC1(c2ccccc2Cl)CCCCC1=O (stereo not shown) [ketamine]
memory [9]: delayed memory recall and decreases in verbal and nonverbal memory
smooth pursuit of eye movements [10]: deficits in smooth pursuit of eye movements

CC12CC3CC(C)(C1)CC(N)(C3)C2.Cl [memantine, 1-amino-3,5-dimethyl-adamantane hydrochloride]
apoptosis induced by gp120 [11]: prevention of apoptosis
neurological or morphological outcome [12]: failed to attenuate
decrease of tumor volume [13]: 25%
tumor expansion facilitated by glutamate secretion [13]: blocked
growth of brain and systemic glutamate secreting tumors ([14]; in vitro): slow the growth
in vitro proliferation of tumor cells ([14]; lung, rhabdomyosarcoma, medulloblastoma, thyroid adenocarcinoma): decrease in vitro proliferation
levels at which in vitro proliferation was decreased ([14]; unobtainable at therapeutic human doses): 100 μM/ml
placental penetration [15]: good placental penetration
teratogenesis [15]: minimal teratogenesis
toxicity to the fetus [15]: non-toxic properties to the fetus
antagonism at L- and N type voltage-activated calcium channels, Na+ channels [16]: weak antagonist
time to normalized learning [17]: ≤ 8 days
time to reversal of learning impairment [17]: ≤ 3 days
free brain concentrations lower [18]: 20-30%
BDNF mRNA levels [19]: increased BDNF mRNA levels
induction of HSP, neuronal vacuolization and necrosis [20]: No induction of HSP (heat shock protein) or neuronal vacuolization and necrosis
effect on LTP in hippocampal slices ([21]; 6-10 μM): do not attenuate LTP
increase of the CA1 pyramidal cell spike ([21]; in vitro): 100%
synaptic functioning after removal of Mg++ ([21]; relevant human brain concentrations (1-μM)): normalized synaptic functioning
potency at NR1A/2B [22]: intermediate potency
rate of cognitive decline [23]: efficacy in decreasing the rate of cognitive decline
effects at NR2A [24]: weak effects
effect on GABA or AMPA receptors [25]: no effect
infarct size [26]: significantly reduce infarct size
NMDA channels left unblocked [27]: 20%
levels at which action is specific for antagonism of the NMDA receptor ([27]; does not affect other ligand-gated or voltage-gated channels): 1 to 10 µM
therapeutic concentration that produces efficacy in Parkinson's disease [28]: less than 2 μM
drug interaction with AchE (acetylcholinesterase inhibitors) ([29]; combined with AchE inhibitors): no adverse drug interaction
adverse events ([29]; dose-related): nausea, dizziness, and restlessness
hepatic toxicity ([29]; human, in vivo): minimal hepatic toxicity
patients with headache as adverse event ([29]; patients who do not suffer from migraine, mild, usually transitory, dose related): up to 10%
concentrations at which memantine interacts with multiple receptors [30]: greater than 100 μM
eliminating symptoms of drug withdrawal and addiction [31]: conflicting and usually negative
neurological status [32]: significant improvement
enhanced neuronal density drop-out in the striatum [33]: 26%
reduction in volume in the striatum [33]: 11.5%
block of NR2C and NR2D subunits [34]: preferentially blocks
NMDA stimulated activity of inner hair cell afferents [35]: selectively inhibit
effect on CNS inflammation, IFN-γ, lymphocytic proliferation, systemic immunity [36]: failed to have any effect
neuronal ganglion cell death [37]: prevention of neuronal ganglion cell death
TTP (time-to-peak concentration) ([38]; after oral intake): 6 to 8 h
decrease of CSF (cerebrospinal fluid) concentration ([38]; due to albumin binding): 20-50%
CSF concentrations lower (CSF sampling) ([38]; human subjects): 30-40%
serum levels ([38]; humans, 20 mg per day): 500 to 1000 nM
blood brain barrier penetration ([38]; in vivo): easily penetrates the blood brain barrier
plasma clearance half-life (t1/2) ([38]; in vivo): 60 to 100 h
protein binding ([38]; in vivo): 42-45%
time to steady-state plasma levels ([38]; in vivo): approximately 21 days
absorption from the gastrointestinal tract ([38]; oral): completely absorbed
plasma levels ([38]; patients treated with 10-30 mg per day): 400 to 1000 nM
cognitive effects in alcoholic dementia [39]: reversed cognitive effects
response of tinnitus [40]: successfully treated
efficacy as an anti-convulsant or in epilepsy [41]: minimal efficacy
treatment of APN [8]: efficacy
lesions of the NBM produced by mitochondrial toxins (3-NP) [42]: inhibited
striatal lesions by malonate [42]: significantly attenuated
hippocampal damage, convulsions and cell death induced by ICV QUIN ([43]; in vivo): prevents hippocampal damage, convulsions and cell death
memory deficits by chronic ICV infusion of QUIN ([43]; simultaneous infusion of memantine): blocked
